Measurements from patent publication US10836792B2, “Retro-inverso peptide inhibitors of cell migration, extracellular matrix and endothelial invasion by tumor cells” (ISTITUTO NAZIONALE TUMORI IRCCS “FONDAZIONE G. PASCALE”, priority 2016, dated 2020).
Non-standard residues stand in square brackets, D forms with d. Residues, ends and D or L forms follow the SMILES beside them. Aib = CC(C)(N)C(=O)O

Legend:
HUVECs = assay: Endothelial tube formation on matrigel; assay type: cell-based, human; details: 10 nM
Description: FIG. 10 At the concentration of 10 nM the retro-inverso peptide RI-3 inhibits both FBS (61%) and VEGF-triggered (75%) endothelial tube formation. (A) representative pictures taken with an inverted microscope at 100× magnifications. (B) quantitative analysis (Example 10).
Endothelial cells undergo morphological differentiation into an extensive network of capillary-like structures consisting of highly organized three-dimensional cords when seeded on matrigel in the presence of a pro-angiogenic stimuli. HUVECs were suspended in medium (CTRL) or medium with 10% FBS or 40 ng/ml VEGF165, without (None) or with 10 nM RI-3 and seeded on matrigel-coated plates for 6 hrs at 37° C., 5% CO2. Representative pictures were taken with an inverted microscope at 100× magnifications. Scale bar: 10 μm (A). Quantitative analysis of tube formation was calculated as a percentage of tubes formed by cord-like structures counted in the absence of any angiogenic stimulus and considered as 100% (CTRL). Data represent means±SD of two independent experiments performed in duplicate. Statistical significance was calculated against none with *p<0.05, **p<0.001 (B). Both FBS and VEGF promoted endothelial tube formation, reaching 352% and 620%, respectively, above basal. The retro-inverso peptide RI-3 reduced FBS- and VEGF-dependent tube formation by 61% and 75%, respectively.

[1] = tested on: metastatic melanoma A375M6; assay: Matrigel invasion (xCELLigence RTCA), A375M6; assay type: cell-based, human; details: 10 nM, 20 hrs
Description: (§1) FIG. 8 At the concentration of 10 nM the retro-inverso peptide RI-3 prevents matrigel invasion of tumor cells from human osteosarcoma Saos-2 (A), chondrosarcoma Sarc (B), melanoma A375 (C), metastatic melanoma A375M6 (D), ovarian carcinoma SKOV-3 cells (E), or primary ovarian cancer cells derived from a tumor excision (OV-53) (F), as monitored in real-time for 20 hr as changes in cell index by the xCELLigence RTCA system (Example 8).
(§2) To investigate the ability of RI-3 to prevents matrigel invasion of tumor cells form different tissue origins, human osteosarcoma Saos-2 (A), chondrosarcoma Sarc (B) melanoma A375 (C), metastatic melanoma A375M6 (D), ovarian carcinoma SKOV-3 cells (E) or primary ovarian cancer cells derived from a tumor excision (OV-53) (F) were seeded on polymerized matrigel and allowed to invade matrigel in the absence (None) or in the presence of 10 nM RI-3. Cell invasion was monitored in real-time for 20 hrs as changes in cell index by the xCELLigence RTCA system. Data represent mean±SD from quadruplicate experiments. All cell lines were able to cross matrigel, although to a different extent. In all case RI-3 reduced matrigel invasion by about 30%, 31%, 64%, 57%, 53% and 68%, of Saos-2, Sarc, A375, A375M6, SKOV-3 and OV-53 cells, respectively.

[2] = tested on: human osteosarcoma Saos-2; assay: Matrigel invasion (xCELLigence RTCA), Saos-2; assay type: cell-based; details: 10 nM, 20 hrs
Description: as §1, §2

THP1 monocytes = assay: Trans-endothelial migration through HUVEC monolayer (xCELLigence RTCA), THP-1; assay type: cell-based, human; details: 10 nM, 5 hrs
Description: (§3) FIG. 9 At the concentration of 10 nM the retro-inverso peptide RI-3 affects trans-endothelial migration of human chondrosarcoma Sarc (A), melanoma A375 (B), ovarian carcinoma SKOV-3 (C) cells, or THP1 monocytes (D), as monitored by the xCELLigence RTCA system (Example 9).
(§4) The entry of tumor cells into bloodstream is one of the earliest events of the metastatic process. The ability of RI-3 to affect trans-endothelial migration of human chondrosarcoma Sarc (A) melanoma A375 (B), ovarian carcinoma SKOV-3 (C) cells, or THP1 monocytes (D) was monitored by the xCELLigence RTCA system. Human Umbilical Vein Endothelial Cells (HUVEC) (1×10^4 cells/well) suspended in growth medium, were allowed to grow for 20-25 hrs until they form a confluent monolayer, prior to seeding Sarc, A375, SKOV-3, or THP-1 cells (1×10^4 cells/well) in growth medium in the absence (None) or in the presence of 10 nM RI-3. The experiments were performed twice in quadruplicate. When cells cross the endothelial monolayer, there is a drop in electrical resistance which is monitored in real-time for 5 hrs as the cell index changes due to the rupture of endothelial monolayer. All cell lines were able to reduce endothelial monolayer integrity. The addition of 10 nM RI-3 inhibited the capability of Sarc, A375, SKOV-3, and THP-1 cells to disrupt endothelial monolayers by 17%, 22%, 58%, and 36% respectively.

[3] = tested on: primary ovarian cancer cells derived from a tumor excision (OV-53); assay: Matrigel invasion (xCELLigence RTCA), OV-53; assay type: cell-based, human; details: 10 nM, 20 hrs
Description: as §1, §2

[4] = tested on: human chondrosarcoma Sarc; assay: Trans-endothelial migration through HUVEC monolayer (xCELLigence RTCA), Sarc; assay type: cell-based; details: 10 nM, 5 hrs
Description: as §3, §4

FPR1 = biological target: T1, FPR1 (Homo sapiens, UniProt P21462); assay: Agonist-dependent FPR1 internalization in RBL-2H3/ETFR cells (microscopy); assay type: cell-based; details: binding experiments at 37° C., FITC-fMLF
T1 construct: expressed in transfected cells; host or cells: rat basophilic leukaemia RBL-2H3/ETFR cells
T1 sequence (P21462 1-350): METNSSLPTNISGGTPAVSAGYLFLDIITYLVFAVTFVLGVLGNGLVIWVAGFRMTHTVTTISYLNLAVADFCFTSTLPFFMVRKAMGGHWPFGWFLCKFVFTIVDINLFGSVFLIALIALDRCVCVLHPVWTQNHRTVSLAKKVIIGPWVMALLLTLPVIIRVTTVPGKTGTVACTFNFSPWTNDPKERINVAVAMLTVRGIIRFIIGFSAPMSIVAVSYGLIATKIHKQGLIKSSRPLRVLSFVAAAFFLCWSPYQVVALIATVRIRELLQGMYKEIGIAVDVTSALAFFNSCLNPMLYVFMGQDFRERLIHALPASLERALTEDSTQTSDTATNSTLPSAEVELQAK
Description: Cell-associated fluorescence was measured using a fluorescence plate reader. The results are depicted in FIG. 3. […] To evaluate the effect of RI-3 on agonist-dependent FPR1 internalization, binding experiments were performed at 37° C. and cells were visualized using a Zeiss 510 Meta LSM microscope. Original magnifications: 630×. Scale bar: 10 μm.

SMILES: CC(=O)N[C@H](Cc1ccc(O)cc1)C(=O)N[C@H](CCCNC(=N)N)C(=O)NC(C)(C)C(=O)N[C@H](CCCNC(=N)N)C(N)=O [RI-3, Ac-(D)-Tyr-(D)-Arg-Aib-(D)-Arg-NH2] (Ac-[dY][dR][Aib][dR]-NH2)
- reduction of VEGF-dependent tube formation (HUVECs; 40 ng/ml VEGF165, 6 hrs): 75%
- reduction of FBS-dependent tube formation (HUVECs; 10% FBS, 6 hrs): 61%
- reduction of matrigel invasion [1]: ~57%
- reduction of matrigel invasion [2]: about 30%
- inhibition of the capability to disrupt endothelial monolayers (THP1 monocytes): 36%
- reduction of matrigel invasion [3]: ~68%
- inhibition of the capability to disrupt endothelial monolayers [4]: 17%
- agonist-dependent FPR1 internalization (FPR1): prevented agonist-dependent FPR1 internalization
